# Experimental data taken from patent US8524782B2, “Key intermediate for the preparation of Stilbenes, solid forms of Pterostilbene, and methods for making the same” (Laurus Labs Private Limited, priority 2008, dated 2013).
# Values joined by “and” are separate entries in the source; they are usually repeats but may differ in a detail not shown here. Identical values can stand only once.
# Columns and labels:
# [1] = Water vapor adsorption/desorption (WVS); type: physicochemical; details: for Sorption (5-95-5% RH): adsorption 5 to 95% RH; for Desorption (5-95-5% RH): desorption 95 to 5% RH
# Experimental: Water vapor adsorption/desorption (WVS) data were collected on a VTI SGA-100 Vapor Sorption Analyzer. NaCl and PVP were used as calibration standards. Samples were not dried prior to analysis. Adsorption and desorption data were collected over a range from 5 to 95% RH at 10% RH increments under a nitrogen purge. The equilibrium criterion used for analysis was less than 0.0100% weight change in 5 minutes with a maximum equilibration time of 3 hours if the weight criterion was not met. Data were not corrected for the initial moisture content of the samples.
# [2] = Thermogravimetric (TG) analysis; type: physicochemical; details: TGA, up to 150° C., attributed to residual solvent
# Experimental: In Table 4, for Form I, the 26.4 kJ/mol value for the enthalpy of fusion was calculated from a single 10° C./min pattern whereas the 25.6 kJ/mol value was calculated as an average from three 50° C./min patterns. DSC results for Form III indicated a melt onset at 76° C., while HSM results indicated it was 81° C. Material decomposition was observed upon heating above approximately 170° C. The minor weight loss observed up to 150° C. was attributed to loss of residual solvent. FIG. 1 is a DSC stack plot for Forms I-V of Pterostilbene.
# Thermogravimetric (TG) analyses were performed using a TA Instruments Q5000 IR thermogravimetric analyzer. Temperature calibration was performed using nickel and Alumel. Each sample was placed in an aluminum pan. The pan was hermetically sealed with a lid that was opened using a punching mechanism just before being inserted into the TG furnace. The furnace was heated under nitrogen at a rate of 10° C./minute.
# [3] = Enthalpy (heat) of fusion from DSC data; type: physicochemical; details: for Heat of fusion (ΔH), single analyses / Heat of fusion (ΔH), average: DSC 50° C./min; for Heat of fusion (ΔH), average: average of three
# Experimental: In Table 4, for Form I, the 26.4 kJ/mol value for the enthalpy of fusion was calculated from a single 10° C./min pattern whereas the 25.6 kJ/mol value was calculated as an average from three 50° C./min patterns. DSC results for Form III indicated a melt onset at 76° C., while HSM results indicated it was 81° C. Material decomposition was observed upon heating above approximately 170° C. The minor weight loss observed up to 150° C. was attributed to loss of residual solvent. FIG. 1 is a DSC stack plot for Forms I-V of Pterostilbene. Differential Scanning Calorimetry (DSC) analyses were performed using a TA Instruments (New Castle, Del.) Q2000 differential scanning calorimeter, equipped with a refrigerated cooling system (RCS). Temperature calibration was performed using NIST traceable indium metal. The sample was placed into an aluminum DSC pan, and the weight was accurately recorded. The pan was covered with a lid perforated with a laser pinhole, and the lid was hermetically sealed. A weighed, crimped aluminum pan was placed on the reference side of the cell. The sample cell was equilibrated at sub-ambient temperature and heated under a nitrogen purge at a rate of 10° C./minute. Higher and lower heating rates were also investigated (from 1 to 300° C./min). Alternatively, data were obtained using a modulation amplitude of +/−0.8° C. and a 60 second period with an underlying heating rate of 2° C./min from −50 to 150° C. The reported glass transition temperatures are obtained from the inflection of the step change in the reversible heat flow versus temperature curve. Thermodynamic stability relationships of various forms of Pterostilbene were studied by calculating the heat of fusion for each form (from DSC data, see table 4) and through slurry interconversion experiments in toluene. Heat of fusion (ΔH) for Form I was determined (from […] DSC data) to be approximately 100 J/g or 25.6 kJ/mol. […] Heat of fusion for Form II was determined (from 10° C./min DSC data) to be approximately 92 J/g or 23.6 kJ/mol. […] Heat of fusion for Form III was estimated (from 50° C./min DSC data) to be approximately 75 J/g or 19.2 kJ/mol.
# [4] = Slurry interconversion experiments in toluene (XRPD of recovered solids); type: physicochemical; details: from enthalpy of fusion, melting point and slurry interconversion in toluene
# Experimental: Thermodynamic stability relationships of known forms of Pterostilbene were studied by calculating the enthalpy of fusion for each form (from DSC data, Table 4) and through slurry interconversion experiments in toluene in Table 1.
# Saturated solutions of Pterostilbene were prepared at ambient temperature in toluene. The solutions were filtered and seeds of each form were added. The samples were agitated for days and the solids recovered by vacuum filtration. The solids were collected and allowed to dry under ambient conditions.
# [5] = Stress conditions, stability of Pterostilbene Form II; type: physicochemical
# Description: Stress conditions were employed to evaluate the stability of Pterostilbene Form II. […] Ambient and elevated temperature water slurry experiments starting with Form II material were set up in an effort to produce a hydrate of Pterostilbene.
# [6] = Intrinsic dissolution rate in water; type: physicochemical
# Experimental: The polymorphs of Pterostilbene described herein can also be characterized by their respective dissolution rates. […] (open symbols) and 37° C. (filled symbols). […] UV-VIS spectrophotometry: samples were analyzed using a SpectraMax M2 Microplate Reader. Wavelength calibration and photometric accuracy was performed using the SpectraMax […] software as an internal calibration of the instrument. The instrument was blanked with an empty quartz glass plate. Samples were analyzed in the UV range at ambient temperature in the wells of a 96-well quartz plate. The absorbance spectra of water was collected and subtracted from the spectra of the drug solutions to calculate concentrations. Samples were performed in duplicate and absorbance data was averaged. The standard curve was determined based on absorbance at 310 nm.
# [7] = cited from earlier work
# [8] = cited from earlier work; remark: listed apart in the source
# [9] = Physical stability of amorphous Pterostilbene under ambient conditions; type: physicochemical
# Description: FIG. 9 is the x-ray diffraction pattern of x-ray amorphous Pterostilbene. By use the term “x-ray amorphous” what is meant is a material whose powder x-ray powder diffraction pattern is consistent with an amorphous “halo” as that term is understood in the art. By inspection, one of ordinary skill in the art would recognize that the pattern in FIG. 9 does represents a material without any significant crystallinity. However, the material may be nanocrystalline or some other disordered solid. The glass transition temperature of amorphous Pterostilbene was experimentally determined (by modulated DSC) to be approximately 4° C.
# [10] = DSC 50° C./min (average of three for Forms I and II)
structure (smiles),measurement,setting,value
COc1cc(/C=C/c2ccc(O)cc2)cc(OC)c1 [Form III],Sorption (5-95-5% RH),[1],0.6 weight %
same,Desorption (5-95-5% RH),[1],0.5 weight %
same,% weight loss (at 150° C.),[2],0.2%
same,"Heat of fusion (ΔH), single analyses",[3],approximately 75 J/g
same,Enthalpy of fusion,[3]; [10],~4.59 kcal/mol
same,Enthalpy of fusion,"[3]; DSC 50° C./min (average of three for Forms I and II), listed as III",4.59 kcal/mol
COc1cc(/C=C/c2ccc(O)cc2)cc(OC)c1 [Form II],Sorption (5-95-5% RH),[1],0.2/0.2 weight %
same,Desorption (5-95-5% RH),[1],0.2/0.2 weight %
same,Thermodynamic stability relationship of forms,[4],thermodynamically favored compared to Forms III-V
same,Organic vapor stress,[5],structurally unchanged
same,Heat stress,[5]; 80° C. for 3 days,conversion to Form I
same,Chemical stability on ambient exposure,"[5]; ambient (air, but not light) exposure, 34 days",chemically unchanged
same,Structural stability on ambient exposure,"[5]; ambient (air, but not light) exposure, 70 days",structurally unchanged
same,Hydrate formation in water slurry,[5]; ambient and elevated temperature water slurry,No hydrate was observed
same,Moderate humidity stress,[5]; ambient and elevated temperatures,did not result in deliquescence
same,Resulting material of water slurry,[5]; ambient temperature,Form II
same,Resulting material of water slurry,[5]; elevated temperature,Form I
same,% weight loss (at 150° C.),[2],0.2%
same,Enthalpy of fusion,[3]; DSC 10° C./min,~5.64 kcal/mol
same,Heat of fusion (ΔH),[3]; DSC 10° C./min,approximately 92 J/g
same,Enthalpy of fusion,"[3]; DSC 10° C./min, listed as II",5.64 kcal/mol
same,"Heat of fusion (ΔH), single analyses",[3],100 J/g and 91 J/g and 92 J/g
same,Enthalpy of fusion,[3]; [10],5.78 kcal/mol
same,Enthalpy of fusion,"[3]; DSC 50° C./min (average of three for Forms I and II), listed as II",5.78 kcal/mol
same,"Heat of fusion (ΔH), average",[3],94 J/g
same,Intrinsic dissolution rate,[6]; 25° C.,0.90 ± 0.03 μg/cm^−2/min
same,Intrinsic dissolution rate,[6]; 37° C.,2.35 ± 0.08 μg/cm^−2/min
COc1cc(/C=C/c2ccc(O)cc2)cc(OC)c1 [Form IV],Sorption (5-95-5% RH),[1]; listed as IV,0.5/0.5 weight %
same,Desorption (5-95-5% RH),[1]; listed as IV,0.5/0.5 weight %
same,% weight loss (at 150° C.),[2]; listed as IV,0.2%
COc1cc(/C=C/c2ccc(O)cc2)cc(OC)c1 [Form I],Sorption (5-95-5% RH),[1],0.2/0.2 weight %
same,Desorption (5-95-5% RH),[1],0.2/0.2 weight %
same,Thermodynamic stability relationship of forms,[4],thermodynamically stable crystal form
same,% weight loss (at 150° C.),[2],0.5%
same,Enthalpy of fusion,[3]; DSC 10° C./min,~6.12 kcal/mol and 6.31 kcal/mol
same,Heat of fusion (ΔH),[3]; DSC 10° C./min,approximately 100 J/g
same,Enthalpy of fusion,"[3]; DSC 10° C./min, listed as I",6.12 kcal/mol
same,"Heat of fusion (ΔH), single analyses",[3],106 J/g and 102 J/g and 101 J/g
same,Enthalpy of fusion,[3]; [10],6.31 kcal/mol and 6.12 kcal/mol
same,Enthalpy of fusion,"[3]; DSC 50° C./min (average of three for Forms I and II), listed as I",6.31 kcal/mol
same,"Heat of fusion (ΔH), average",[3],103 J/g
same,Intrinsic dissolution rate,[6]; 25° C.,0.83 ± 0.06 μg/cm^−2/min
same,Intrinsic dissolution rate,[6]; 37° C.,2.05 ± 0.03 μg/cm^−2/min
COc1cc(/C=C/c2ccc(O)cc2)cc(OC)c1 [Form V],Sorption (5-95-5% RH),[1]; listed as V,0.8 weight %
same,Desorption (5-95-5% RH),[1]; listed as V,0.5 weight %
same,% weight loss (at 150° C.),[2]; listed as V,0.4%
"COc1cc(/C=C/c2ccc(O)cc2)cc(OC)c1 [Pterostilbene, trans-3,5-dimethoxy-4′-hydroxystilbene]",Bioavailability,[7],poor
same,Solubility in water,[8],poor
COc1cc(/C=C/c2ccc(O)cc2)cc(OC)c1 [amorphous Pterostilbene],Physical stability of the amorphous form,[9],rapidly crystallized
